Assay: Maximum tolerated dose study in Beagle dogs, escalated-dose oral administration
Assay type: in vivo
Conditions: both sexes, beagle, dog, in vivo; oral gavage, dose escalation
Excerpt: The protocol and procedures involving the care and use of animals in this study was reviewed and approved by IACUC of QuBEST BIO prior to conduct (Approval no.: QBSIACUC-A18142). During the study, the care and use of animals will be conducted in accordance with all applicable guidelines of Animal Welfare Act. Non-naive one male and one female Beagle dogs (~16–24 months old, original supplier: ORIENTBIO Co., Ltd, Korea) were selected from the stock colony and assigned for the study. The route of administration was the oral (by gavage) route, which is the anticipated clinical route of exposure. Test article formulations were administered once via oral gavage. The day of 1st dosing was designated as Day 1. Each dose was administered via a syringe attached with 12-french feeding tube. A dose volume of 5 ml/kg was used and individual dose volumes were based on the most recent body weight. Each dose was followed by a distilled water of 5 ml. Each animal was observed twice daily (a.m. and p.m.) for mortality and moribundity; findings were recorded as they were observed. Cage side observations were made for each animal once daily; abnormal findings were recorded. […] Body weights were measured prior to each dosing. […] Prior to dosing and ~24 h post each dose, blood was collected as the same method and frequency with hematology analysis using no anticoagulant and then serum was separated by centrifugation and stored at freezer until analyze (AU 400, Olympus, Japan; […] 744 Na^+/K^+/[…] Analyzer, SIEMENS, Germany). In terminal procedures, all surviving animals were returned to the stock colony without necropsy. Toxicity studies were performed by QuBEST BIO Co., Ltd (Yongin, Korea).
The objective of this study was to determine the maximum tolerated dose (MTD) of SLC-D011 following dose escalation by oral gavage to Beagle dogs.
The study group was detailed in Text Table 1.
Text Table 1. Study Group
Dose Level Dose Conc. No. of Animals†
Group Treatment (mg/kg) (mg/mL)
†: Animals were re-used for each dose with at least 4-day wash-out period.
The following parameters were evaluated in this study: mortality, clinical signs, body weights and clinical pathology parameters (hematology and serum biochemistry).
Mortality and Clinical Observations
All animals survived until end of the study. Test article-related clinical observations were limited to oily soft stool in the 100 mg/kg/day group animals and vomitus (frothy) and soft sto ol in the 400 […]
Clinical Pathology Parameters (Hematology and Serum Chemistry) […]
the 100 and 400 mg/kg group animals on approximately 24 hours post each dose, compared to pre […]
Based on the results of this study, the maximum tolerated dose (MTD) of SLC-D011 was considered to […]
Test article formulations were administered once via oral gavage. The day of 1st dosing was designated […]
Each dose was administered via a syringe attached with 12-french feeding tube. A dose volume of 5 mL/kg was used and individual dose volumes were based on the most recent body weight. Each dose was followed by a distilled water of 5 mL. […]
Each animal was observed twice daily (a.m. and p.m.) for mortality and moribundity; findings were recorded as they were observed. Cage side observations were made for each animal once daily; abnormal findings were recorded. Detailed observations were made for each animal once prior to treatment; abnormal findings (ranked/graded, if appropriate) or an indication the animal appears […]
Body weights were measured prior to each dosing. […]
Prior to each dosing and approximately 24 hours post each dose, blood samples for hematology examination were collected from the via cephalic vein into tubes with K2EDTA anticoagulant and […]
Parameters Unit Measurement Method
ⓐ RBC (Red blood cell count) 106/μL Electric Impedance […]
ⓒ HGB (Hemoglobin conc.) g/dL Cyanmethemoglobin […]

CC1(C)Oc2cc3oc(=O)ccc3cc2C[C@@H]1OC/C=C/c1ccccc1 [SLC-D011]
MTD: > 400 mg/kg

Reference: publication PMC7782499, “Progerinin, an optimized progerin-lamin A binding inhibitor, ameliorates premature senescence phenotypes of Hutchinson-Gilford progeria syndrome” (Communications Biology, 2021)
